Measured values: patent publication US12053533B2, “Fluorescent probe for cyclooxygenase-2” (The Board of Trustees of the University of Illinois, priority 2020, dated 2024)

Experiments:
[1] = Photophysical characterization; format: physicochemical
Protocol: Photophysical Characterization. Extinction coefficients and fluorescence quantum yields were acquired (n=3) and reported as the average with a relative standard deviation less than 15%. Extinction coefficients were acquired by titrating compound in 100 mM Tris-HCl (pH 8.0) within the linear range. Fluorescence quantum yields were obtained using the modified method for relative fluorescence quantum yield. Dye was titrated into the solution and the absorbance and emission were monitored (excitation at 540 nm). The absorbance was maintained below 0.1 to limit secondary absorbance events. Total emission spectra were integrated, and the relative quantum yield was calculated relative to Rhodamine B (ϕ=0.70, ethanol). The refractive index of 100 mM Tris-HCl (pH 8.0) was measured to be 1.33514.

[2] = test system: COX-2 activity in RAW 264.7 macrophage lysates; experiment: RAW 264.7 macrophage lysate COX-2 activity assay; format: cell-based, mouse; details: NEM 1 mM, CoxFluor readout
[3] = test system: COX-2 activity in HEK 293T cells over-expressing human COX-2; experiment: Confocal live-cell imaging of human COX-2 transfected HEK 293T cells; format: cell-based; details: CoxFluor 10 μM
Protocol: Prior to plating onto 4-well chambered cover glasses, the surface exposed substrate was coated with R&D Systems™ Cultrex Poly-L-Lysine (Fisher Scientific) according to the manufacturers protocol (allowed to dry>3 h). […] Transfections was performed using Lipofectamine 3000 (Thermo Fisher Scientific) according to the manufacturer's protocol. […] Media was removed from each well and replaced with 500 μL Opti-MEM™ Reduced Serum Media followed by the addition of 20 μL transfection master mix.
Transfections were performed using the Lipofectamine 3000 reagent according to the aforementioned protocol. Control wells were treated the same as the transfected wells without the addition of the transfection master mix. […] Each well was imaged using a Zeiss LSM 700 confocal microscope (n=3 technical replicates; n=4 biological replicates). For GSH knockdown experiments, the initial media change was performed with 1 mM NEM (0.1% DMSO final concentration) in serum-free DMEM media and the cells were allowed to incubate for 30 minutes before proceeding to the staining with CoxFluor. […] All images were processed using identical parameters and false colored (LUT: jet.lut) in ImageJ.

CCCCC/C=C\C/C=C\C/C=C\C/C=C\CCCC(=O)N1c2ccc(O)cc2Oc2cc(O)ccc21 [CoxFluor]
extinction coefficient ε at 572 nm ([1]; 100 mM Tris-HCl pH 8.0): 820 M⁻¹ cm⁻¹ | fluorescence quantum yield ΦF ([1]; 100 mM Tris-HCl pH 8.0, relative to Rhodamine B): 0.29 | maximum increase in COX-2 activity in lysates ([2]; 19 hr LPS activation): 17.6 fold | increase in COX-2 activity in lysates ([2]; within the first 4 hr of LPS activation): 2.4 fold | fluorescence increase for transfected cells compared to the control ([3]; 3 h, N-ethylmaleimide glutathione depletion): 1.2 fold | fluorescence enhancement for the control relative to indomethacin-treated transfected cells ([3]; 4.5 h): 1.2 fold
